In PMC11109052, “Metabolism characterization and toxicity of N-hydap, a marine candidate drug for lung cancer therapy by LC–MS method” (Natural Products and Bioprospecting, 2024):

What was measured:
[1] = Metabolic stability in HLMs, CYP reaction; type: in vitro ADME, human; conditions: human, human liver microsomes (CYP reaction), pH 7.4, HLMs, CYP reaction
Procedure: (§1) Various microsomes including HLMs, HKMs, HIMs, RLMs, RKMs, MLMs and MKMs were involved in CYP and UGT reactions of N-hydap. A typical CYP incubation mixture included 0.5 mg/mL microsomes protein, 3.3 mM glucose-6-phosphate, 3.3 mM MgCl2, 0.4 U/mL glucose-6-phosphate dehydrogenase, and N-hydap (1, 2.5, or 10 μM) in the 50 mM potassium phosphate buffer (KPI, pH 7.4). The incubation mixture was preincubated at 37 °C for 5 min, and the reaction was started by adding NADP to form a NADPH-regenerating system. Simultaneously, the classic UGT reaction system consisted of 50 mM KPI, 5 mM MgCl2, 0.5 mg/mL microsomes, 0.125 mg/mL alamethicin, and 5.25 mg/mL saccharolactone. The reaction was initiated after supplying UDPGA. The CYP and UGT mixtures were incubated at 37 °C in a shaking water bath (80 rpm) for 1.5 h to enhance metabolite formation. To terminate the reaction, an ice-cold solution of Tes (50 ng/mL, dissolved in methanol and used as an internal standard) was added to half of the mixture volume. The mixture was vortexed for 30 s and then centrifuged at 13,000 rpm for 15 min to eliminate any precipitated protein. The resulting supernatant was transferred to autosampler vials, and 5 μL was injected into the LC–MS system. All reactions were conducted in triplicate.
(§2) The identical concentration of HLMs was utilized for both the CYP reaction and UGT reaction. At predetermined time intervals of 0, 15, 30, and 60 min, 100 µL samples were taken from the reaction volumes. To halt the reaction, 50 µL of 50 ng/mL Tes was added. Samples were analyzed using LC–MS to compare the remaining level of N-hydap between the CYP reaction and UGT reaction. T1/2 and CLint (in vivo) (mL/min/kg) were calculated as reported previously:
(§3) T1/2=0.693/k, where k represents the slope of the line derived from plotting the natural logarithm of the percentage (Ln %) of N-hydap remaining in the reaction mixture against the incubation time (minutes).
(§4) CLintinvivo=0.693/invitroT1/2×mLincubation/mgmicrosomes×45mgmicrosomes/gliver×20gliver/kgbodyweight.

HLMs (CYP reaction) = assay: Metabolic stability in HLMs, CYP reaction; type: in vitro ADME, human; conditions: for remaining percentage of N-hydap: HLMs, CYP reaction
Procedure: as §1, §2, §3, §4

UGT1A1 [2] = biological target: T1, UGT1A1 (Homo sapiens, UniProt P22309); assay: Incubation with recombinant human UGT isoforms: UGT1A1; type: in vitro ADME; conditions: recombinant UGT 2 μg/mL
T1 construct: purchased Cypex (Scotland, UK)
Procedure: Incubation of N-hydap (2.5 μM) with eight recombinant human CYP enzymes (CYP1A2, CYP2B6, CYP2C9, CYP2C19, CYP2D6, CYP3A4, CYP4A11 and CYP4F2) at three enzyme concentrations (2, 4, and 20 μg/mL) was conducted following the same procedure as described above for microsomes. Subsequently, incubation with N-hydap (1, 2.5, and 6 μM) and twelve recombinant human UGT isoforms (UGT1A1, UGT1A3, UGT1A4, UGT1A6, UGT1A7, UGT1A8, UGT1A9, UGT1A10, UGT2B4, UGT2B7, UGT2B15 and UGT2B17) was performed, with the enzyme concentration used at 2 μg/mL. All reactions were carried out in triplicate.

Ugt1a1 [3] = assay: Real-time PCR mRNA level after 7 days gavage: Ugt1a1; type: in vivo, mice; set-up: key to UGT1A1 mNA expression: ↑: up-regulation; ↓: down-regulation; –: no change
Procedure: Mice were randomly divided into four groups, with eight animals in each group. The mice received oral pretreatment with N-hydap for 7 days at doses of 2, 5, and 10 mg/kg/day, which were considered as the low dose, medium dose, and high dose, respectively. Correspondingly, the control group received PBS. On the 8th day, the liver and kidneys were removed, and organs from eight mice per group were combined to prepare MLMs and MKMs using the detailed procedures above. Subsequently, we determined the activity of CYP and UGT enzymes by specific substrate metabolized with MLMs (0.5 mg/mL) and MKMs (0.2 mg/mL) in vitro. Specifically, the following selective substrates were used for the respective enzymes: PH (1 μM) for CYP1A2, DIC (1 μM) for CYP2C9, MP (90 μM) for CYP2C19, DM (1 μM) for CYP2D6, CZX (10 μM) for CYP2E1, Tes (1 μM) for CYP3A4, SN38 (1 μM) for UGT1A1, CACD (100 μM) for UGT1A3, Sero (20 μM) for UGT1A6, and Prop (1 μM) for UGT1A9. All substrates were dissolved in methanol or DMSO. The incubation procedure was carried out as mentioned above, and the reaction was terminated with VER (20 ng/mL) in ESI+ mode and CLP (200 ng/mL) in ESI− mode. In the ex vivo experiments, the activity of enzymes was measured by quantifying the production of various metabolites (nM/mg protein/min). The metabolites and their corresponding enzymes are as follows: APAP from PH, 4-OH-DIC from DIC, 4-OH-MP from MP, DXO from DM, 6-OH-CZX from CZX, 6-OH-Tes from Tes, SN38-G from SN38, CACD-G from CACD, Sero-G from Sero, Prop-G from Prop. The measurements were performed using multiple reaction monitoring (MRM) transitions, which are specific mass spectrometry transitions used for quantification. […]
Total RNA from liver and kidney samples taken after 7 days of N-hydap gavage was extracted using the Animal Total RNA Isolation Kit (Foregene, Chengdu, Sichuan, China) following the manufacturer’s instructions. The concentrations of total RNA were determined by a nucleic acid concentration tester at 260/280 nm. […]

T1 sequence (P22309 26-533): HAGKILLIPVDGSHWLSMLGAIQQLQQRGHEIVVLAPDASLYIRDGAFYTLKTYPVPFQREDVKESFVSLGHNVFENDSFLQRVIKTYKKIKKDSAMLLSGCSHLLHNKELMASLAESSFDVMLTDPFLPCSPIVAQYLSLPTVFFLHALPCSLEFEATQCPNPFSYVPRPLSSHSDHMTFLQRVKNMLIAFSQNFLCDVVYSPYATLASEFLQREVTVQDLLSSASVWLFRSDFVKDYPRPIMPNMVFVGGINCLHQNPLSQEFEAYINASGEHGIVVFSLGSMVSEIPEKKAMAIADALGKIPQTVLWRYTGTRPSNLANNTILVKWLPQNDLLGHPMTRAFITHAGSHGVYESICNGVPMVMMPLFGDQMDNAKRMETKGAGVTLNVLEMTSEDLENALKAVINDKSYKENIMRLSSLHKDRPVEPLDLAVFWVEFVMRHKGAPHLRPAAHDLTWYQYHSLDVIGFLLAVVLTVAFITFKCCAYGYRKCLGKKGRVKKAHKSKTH

## CC1CCC2C(C=CC(C)C2C(=O)c2c(O)c(C3(O)CCC(O)C4OC43)cn(O)c2=O)C1 (stereo not drawn) [N-hydap, N-Hydroxyapiosporamide]
[1]
  half-life: 179 min
[1]; extrapolated from in vitro T1/2, read-out: CLint (in vivo)
  CLint scaled: 34.9 mL/min/kg
HLMs (CYP reaction); 15 min
  remaining percentage of N-hydap: 64.43%
HLMs (CYP reaction); 30 min
  remaining percentage of N-hydap: 58.02%
HLMs (CYP reaction); various microsomes, after 1 h
  eliminated by CYPs: about 50%
UGT1A1 [2]
  contribution of UGT1A1 to formation of N-hydap-G: secondary contributors
Ugt1a1 [3]; Kidney
  UGT1A1 mNA expression: ↓
Ugt1a1 [3]; Liver
  UGT1A1 mNA expression: –
Ugt1a1 [3]; mice, 2, 5, 10 mg/kg p.o. 7 days, kidneys
  mRNA levels of Ugt1a1: slight reduction
